The values below come from patent US7141590B2, “Pharmaceutical uses and synthesis of nicotinanilide-N-oxides” (UCB SA, priority 2000, dated 2006).

The target in test [1] is T1, human CXCR2 (IL8RB) chemokine receptor (Homo sapiens, UniProt P25025).
T1 construct: host or cells: CHO cells
T1 sequence (P25025 1-360): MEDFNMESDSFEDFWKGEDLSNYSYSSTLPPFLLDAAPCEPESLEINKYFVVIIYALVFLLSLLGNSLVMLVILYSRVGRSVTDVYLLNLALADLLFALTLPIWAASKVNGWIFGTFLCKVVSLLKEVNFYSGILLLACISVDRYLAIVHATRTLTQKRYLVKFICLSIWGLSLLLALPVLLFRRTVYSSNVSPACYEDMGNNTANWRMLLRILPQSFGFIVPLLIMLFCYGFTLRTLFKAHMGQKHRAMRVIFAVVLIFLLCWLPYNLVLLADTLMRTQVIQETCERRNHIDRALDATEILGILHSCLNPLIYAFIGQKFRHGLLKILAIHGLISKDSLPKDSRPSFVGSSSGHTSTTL
The test is described as follows: Panlabs CXCR2 filtermat binding assay ([125I]Interleukin-8). The note with it: 1 h, screened at 10 μM, read-out: CXCR2 specific binding (%). The method, then:
Selected compounds were screened by Panlabs (Bothell Wash.) using their CXCR2 filtermat binding assay. This assay measures binding of [^125I]Interleukin-8 to human interleukin-CXCR2 (IL8RB) receptors and is also described in Ahuja, S. K. and Murphy, P. M., J. Biol. Chem. 271:20545–20550, 1996. In summary, CHO cells stably transfected with a plasmid encoding the human CXCR2 (IL8RB) chemokine receptor were used to prepare membranes in modified HEPES pH 7.4 buffer. A 2 μg aliquot of membrane was incubated with 15 pM [^125I]Interleukin-8 for 60 minutes at room temperature. Non-specific binding was estimated in the presence of 10 nM interleukin-8. Membranes were filtered and washed 3 times and the filters were counted to determine [^125I]Interleukin-8 specifically bound. Compounds were screened at 10 μM and results are reported in terms of Specific Binding (%) in Tables 3–5.
This assay measures binding of [^125I]Interleukin-8 to human interleukin-CXCR2 (IL8RB) receptors. See Ahuja, S. K. and Murphy, P. M., J. Biol. Chem. 271: 20545–20550, 1996, for details. In brief, CHO cells stably transfected with a plasmid encoding the human CXCR2 (IL8RB) chemokine receptor were used to prepare membranes in modified HEPES pH 7.4 buffer using standard techniques. A 2 μg aliquot of membrane was incubated with 15 pM [^125I]Interleukin-8 for 60 minutes at room temperature. Non-specific binding was estimated in the presence of 10 nM interleukin-8. Membranes were filtered and washed 3 times and the filters were counted to determine [^125I]Interleukin-8 specifically bound. Compounds were screened at 10 μM, with the results reported in Table 6 (row titled “CXCR2”) in terms of specific binding (%).

In test [2] the target is T2, human CXCR1 (IL8RA) chemokine receptor (Homo sapiens, UniProt P25024).
T2 construct: host or cells: CHO cells
T2 sequence (P25024 1-350): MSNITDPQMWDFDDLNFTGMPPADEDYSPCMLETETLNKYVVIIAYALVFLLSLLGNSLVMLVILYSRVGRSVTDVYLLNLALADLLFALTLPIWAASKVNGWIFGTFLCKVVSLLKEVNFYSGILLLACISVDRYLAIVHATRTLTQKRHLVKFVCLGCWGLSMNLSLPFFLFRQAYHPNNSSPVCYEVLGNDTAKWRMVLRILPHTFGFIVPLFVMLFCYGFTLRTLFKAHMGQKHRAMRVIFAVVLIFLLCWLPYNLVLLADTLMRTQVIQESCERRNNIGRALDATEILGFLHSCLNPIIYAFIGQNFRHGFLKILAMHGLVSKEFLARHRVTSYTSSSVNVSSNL
The test is described as follows: CXCR1 assay ([125I]Interleukin-8 binding). The conditions noted are these: screened at 10 μM; Panlabs; read-out: CXCR1 specific binding (%). The method, then: This assay measures binding of [^125I]Interleukin-8 to human interleukin-CXCR1 (ILR8A) receptors. See Ahuja, S. K. and Murphy, P. M. J. Biol. Chem. 271:20545–20550, 1996 for details. In brief, CHO cells stably transfected with a plasmid encoding the human CXCR1 (IL8RA) chemokine receptor were used to prepare membranes in modified HEPES pH 7.4 buffer using standard techniques. A 5 μg aliquot of membrane was incubated with 8 pM [^125I]Interleukin-8 for 60 minutes at room temperature. Non-specific binding was estimated in the presence of 10 nM interleukin-8. Membranes were filtered and washed 3 times and the filters were counted to determine [^125I]Interleukin-8 specifically bound. Compounds were screened at 10 μM, with the data reported in Table 6 (row titled “CXCR1”) in terms of specific binding (%).

In test [3] the target is T3, human neuropeptide Y1 (NPY1) receptors (Homo sapiens, UniProt P25929).
T3 construct: host or cells: SK-N-MC (human neuroblastoma) cells
T3 sequence (P25929 1-384): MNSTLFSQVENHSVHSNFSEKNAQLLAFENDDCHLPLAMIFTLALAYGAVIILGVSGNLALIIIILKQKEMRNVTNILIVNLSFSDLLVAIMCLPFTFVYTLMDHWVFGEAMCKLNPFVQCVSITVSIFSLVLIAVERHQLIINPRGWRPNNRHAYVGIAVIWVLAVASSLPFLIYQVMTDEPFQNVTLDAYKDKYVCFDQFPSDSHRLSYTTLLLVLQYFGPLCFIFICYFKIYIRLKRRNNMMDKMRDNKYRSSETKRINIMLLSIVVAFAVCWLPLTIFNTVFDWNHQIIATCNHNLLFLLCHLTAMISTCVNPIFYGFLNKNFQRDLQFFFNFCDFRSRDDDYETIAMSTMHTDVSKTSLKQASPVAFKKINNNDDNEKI
As to the kind of experiment: NPY1 assay ([125I]Peptide YY binding, SK-N-MC cells). The note with it: screened at 10 μM; Panlabs. The method, then:
This assay measures binding of [^125I]Peptide YY (PYY) to human neuropeptide Y1 (NPY1) receptors. See Fuhlendorff, J., et al. Proc. Natl Acad. Sci. USA 87:182–186, 1990 and Sheikh, S. P., et al. J. Biol. Chem. 264: 6648–6654, 1989. In brief, SK-N-MC (human neuroblastoma) cells were used in modified HBSS pH 7.4 buffer using standard techniques. The cells (10^6) were incubated with 12.5 pM [^125I]PYY for 45 minutes at 25° C. […] Cells were centrifuged and pellets were counted to determine [^125I]PYY specifically bound. Compounds were screened at 10 μM, with the results shown in Table 6 (row titled “NPY1”), reported in terms of specific binding (%).

The subject of test [4] is somatostatin receptors. The test is described as follows: Somatostatin assay ([125I]tyr1 Somatostatin binding, AtT-20 membranes). The note with it: screened at 10 μM; Panlabs. Details: species or system mouse. As for the experimental part:
This assay measures binding of [^125I]tyr^1 Somatostatin to somatostatin receptors. See Thermos, K. and Reisine, T. Mol. Pharmacol. 33:370–377, 1988, and Srikant, C. B. and Heisler, S., Endocrinology 117:271–278, 1985. In brief, AtT-20 (mouse pituitary) cells were used to prepare membranes in modified Tris-HCl pH 7.5 buffer using standard techniques. A 200 μg aliquot of membrane was incubated with 0.04 nM [^125I]tyr^1 Somatostatin for 60 minutes at 25° C. Non-specific binding was estimated in the presence of 1 μM somatostatin-14. Membranes were filtered and washed 3 times and the filters were counted to determine [^125I]tyr^1 Somatostatin specifically bound. Compounds were screened at 10 μM, with the data reported in Table 6 (row titled “Somat.”) in terms of specific binding (%).

Test [5] addresses T4, human chemokine CCR5 receptor (Homo sapiens, UniProt P51681).
T4 construct: host or cells: CHO-K1-p242-CCR5 cells
The test is described as follows: CCR5 assay ([125I]MIP-1β binding). The note with it: 2 h; screened at 10 μM; Panlabs; read-out: CCR5 specific binding (%). The method, then:
This assay measures the binding of [^125I]MIP-1β to human chemokine CCR5 receptors. See Samson, M., et al., J. Biol. Chem. 272:24934–24941, 1997. In brief, CHO-K1-p242-CCR5 cells stably transfected with a plasmid encoding the human chemokine CCR5 receptor were used to prepare membranes in modified HEPES buffer at pH 7.4 using standard techniques. A 1 μg aliquot was incubated with 0.1 nM [^125I]MIP-1β for 120 minutes at 25° C. Non-specific binding was estimated in the presence of 0.1 μM MIP-1β. Membranes were filtered and washed 3 times and filters were counted to determine [^125I]MIP-1β specifically bound. Compounds were screened at 10 μM. The data obtained from this assay is reported in Table 6 (row titled “CCR5”), in terms of specific binding (%).

In test [6] the target is T1, human CXCR2 (IL8RB) chemokine receptor. The conditions noted are these: CXCR2 reference data; cited from earlier work.
In test [7] the target is T2, human CXCR1 (IL8RA) chemokine receptor. The note with it: CXCR1 reference data; cited from earlier work.

“And” between values parts separate entries of the source, which are not always exact repeats. Identical values can stand only once.

T4 sequence (P51681 whole entry): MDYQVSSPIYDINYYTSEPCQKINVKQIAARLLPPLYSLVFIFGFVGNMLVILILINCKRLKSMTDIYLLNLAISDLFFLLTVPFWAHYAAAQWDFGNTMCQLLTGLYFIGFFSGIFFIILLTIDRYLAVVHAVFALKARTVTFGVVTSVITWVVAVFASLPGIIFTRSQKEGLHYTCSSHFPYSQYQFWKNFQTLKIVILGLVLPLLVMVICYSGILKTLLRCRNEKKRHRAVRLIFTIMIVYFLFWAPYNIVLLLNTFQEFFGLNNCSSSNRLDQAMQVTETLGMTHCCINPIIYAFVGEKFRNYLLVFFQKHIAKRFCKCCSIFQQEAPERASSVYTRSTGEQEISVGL

As to `O=C(Nc1ccc(F)cc1)c1ccc(Cl)[n+]([O-])c1` [drawing 128], the remaining activity at 10 µM in test [1] and in test [2] was above 40% throughout. For the same compound, in test [3], the “NPY1 specific binding (%)” value is “* (“*” indicates a value of less than or equal to 40)”. Moreover, in test [4], the “Somat. specific binding (%)” value is “* (“*” indicates a value of less than or equal to 40)”.

Turning to `CS(=O)(=O)c1ccc(C(=O)Nc2ccc(F)cc2)c[n+]1[O-]` [drawing 129], the remaining activity at 10 µM in test [1], in test [5] and in test [2] was above 40% throughout. For the same compound, the “NPY1 specific binding (%)” value in test [3] is listed as “** (“**” indicates a value of greater than 40)”. Further, the “Somat. specific binding (%)” value in test [4] is recorded as “** (“**” indicates a value of greater than 40)”.

With `O=C(Nc1ccc(F)cc1)c1ccc(S(=O)(=O)c2ccccc2)[n+]([O-])c1` [drawing 130], the results for the remaining activity at 10 µM in test [1], in test [5] and in test [2] were above 40%, at most 40% and above 40%, respectively. In test [3], the “NPY1 specific binding (%)” value is “* (“*” indicates a value of less than or equal to 40)”. The “Somat. specific binding (%)” value in test [4] is on record as “* (“*” indicates a value of less than or equal to 40)”.

As to `CCS(=O)(=O)c1ccc(C(=O)Nc2ccc(F)cc2)c[n+]1[O-]` [drawing 131], the remaining activity at 10 µM in test [1] is above 40%; in test [5], above 40%; in test [2], at most 40%. The “NPY1 specific binding (%)” value in test [3] is given as “** (“**” indicates a value of greater than 40)”. In test [4], the “Somat. specific binding (%)” value is given as “* (“*” indicates a value of less than or equal to 40)”.

Consider `CCCS(=O)(=O)c1ccc(C(=O)Nc2ccc(F)cc2)c[n+]1[O-]` [drawing 132], for which the remaining activity at 10 µM in test [1] is above 40%; in test [5] it was above 40%; in test [2], at most 40%. Further, in test [3], the “NPY1 specific binding (%)” value is “** (“**” indicates a value of greater than 40)”. The “Somat. specific binding (%)” value in test [4] is listed as “* (“*” indicates a value of less than or equal to 40)”.

Consider `O=C(Nc1ccc(F)cc1)c1ccc(S(=O)(=O)Cc2ccccc2)[n+]([O-])c1` [drawing 133], for which the remaining activity at 10 µM in test [1] is above 40%; in test [5] it was at most 40%; in test [2], at most 40%. For the same compound, in test [3], the “NPY1 specific binding (%)” value is recorded as “* (“*” indicates a value of less than or equal to 40)”. For the same compound, the “Somat. specific binding (%)” value in test [4] was “* (“*” indicates a value of less than or equal to 40)”.

As to `O=C(Nc1ccc(F)cc1)c1ccc(S(=O)(=O)C2CCCC2)[n+]([O-])c1` [drawing 134], the values for the remaining activity at 10 µM in test [1], in test [5] and in test [2] were above 40%, above 40% and at most 40%, respectively. In test [3], the “NPY1 specific binding (%)” value is listed as “* (“*” indicates a value of less than or equal to 40)”. Further, the “Somat. specific binding (%)” value in test [4] is “* (“*” indicates a value of less than or equal to 40)”.

For `O=C(Nc1ccc(F)c(F)c1)c1ccc(Cl)[n+]([O-])c1` [drawing 135], the remaining activity at 10 µM in test [1] is above 40%; in test [5], at most 40%; in test [2], at most 40%.

Take `O=C(Nc1ccc(F)cc1)c1cc(Cl)c(Cl)[n+]([O-])c1` [drawing 136]: the values for the remaining activity at 10 µM in test [1], in test [5] and in test [2] were above 40%, at most 40% and above 40%, respectively. Also, in test [4], the “Somat. specific binding (%)” value is “* (“*” indicates a value of less than or equal to 40)”.

With “GROα (or MGSA): Growth Regulatory Oncogene α; Melanoma Growth Stimulatory Activity; CXC chemokine”, in test [6], the half-inhibitory concentration (IC50) (in general, the concentration needed to halve the response being measured) was 0.098 nM; the Ki (in general, a dissociation constant, usually derived from enzyme kinetics or from competition with a known ligand) is 0.098 nM and 0.068 nM; the nH is 0.9. In addition, in test [7], the 50% inhibitory concentration (IC50) was above 10000 nM.

For the compound “Interleukin-8: CXC chemokine; standard reference agent used in CXCR1 and CXCR2 binding assays”, in test [6], the IC50 was 0.035 nM, the inhibition constant (Ki) was 0.024 nM and the nH is given as 0.7. Further, in test [7], the IC50 is 0.035 nM, the Ki was 0.007 nM and the nH was 1.0.
